Data from patent publication US12421252B2, “Spiro (isobenzofuranazetidine) compounds for the treatment of autoimmune disease” (Hoffmann-La Roche Inc., priority 2020, dated 2025).

target: T1, hTLR9 (Homo sapiens, UniProt Q9NR96); experiment: HEK293-Blue-hTLR-9 cells assay; assay type: cell-based; settings: HEK293-Blue-hTLR9 cells, ODN2006 stimulation, 20 hrs, SEAP reporter; read-out: HEK/hTLR9 IC50
T1 sequence (Q9NR96 26-1032): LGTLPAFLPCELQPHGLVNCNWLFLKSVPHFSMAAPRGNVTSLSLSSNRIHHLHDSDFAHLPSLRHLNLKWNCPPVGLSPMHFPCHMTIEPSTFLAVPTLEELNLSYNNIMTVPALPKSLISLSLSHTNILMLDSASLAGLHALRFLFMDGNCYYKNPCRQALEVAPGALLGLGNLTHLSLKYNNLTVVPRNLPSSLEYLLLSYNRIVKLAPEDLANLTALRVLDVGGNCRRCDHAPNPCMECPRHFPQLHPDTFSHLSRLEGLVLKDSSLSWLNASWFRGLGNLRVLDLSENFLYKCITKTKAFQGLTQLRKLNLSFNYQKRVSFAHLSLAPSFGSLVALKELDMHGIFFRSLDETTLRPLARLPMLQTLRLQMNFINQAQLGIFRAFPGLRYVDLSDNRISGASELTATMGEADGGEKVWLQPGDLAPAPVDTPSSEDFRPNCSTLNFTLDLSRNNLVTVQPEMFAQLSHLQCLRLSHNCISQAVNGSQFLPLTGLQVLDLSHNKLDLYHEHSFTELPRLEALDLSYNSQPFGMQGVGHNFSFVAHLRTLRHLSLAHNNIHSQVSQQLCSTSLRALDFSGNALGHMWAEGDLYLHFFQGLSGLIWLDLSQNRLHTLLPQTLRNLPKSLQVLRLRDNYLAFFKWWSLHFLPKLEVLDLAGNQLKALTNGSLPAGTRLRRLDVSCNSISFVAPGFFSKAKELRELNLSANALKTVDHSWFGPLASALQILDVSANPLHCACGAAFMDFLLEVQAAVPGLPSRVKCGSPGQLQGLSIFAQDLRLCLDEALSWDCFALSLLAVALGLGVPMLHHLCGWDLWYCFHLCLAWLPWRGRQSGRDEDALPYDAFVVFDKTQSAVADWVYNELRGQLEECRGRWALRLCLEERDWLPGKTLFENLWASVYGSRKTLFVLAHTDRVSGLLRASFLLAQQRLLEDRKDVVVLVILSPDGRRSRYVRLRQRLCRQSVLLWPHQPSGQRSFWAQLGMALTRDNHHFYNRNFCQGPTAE
Excerpt: HEK293-Blue-hTLR-9 cells assay: A stable HEK293-Blue-hTLR-9 cell line was purchased from InvivoGen (Cat. #: hkb-htlr9, San Diego, California, USA). These cells were originally designed for studying the stimulation of human TLR9 by monitoring the activation of NF-κB. A SEAP (secreted embryonic alkaline phosphatase) reporter gene was placed under the control of the IFN-β minimal promoter fused to five NF-κB and AP-1-binding sites. The SEAP was induced by activating NF-κB and AP-1 via stimulating HEK-Blue hTLR9 cells with TLR9 ligands. Therefore the reporter expression was declined by TLR9 antagonist under the stimulation of a ligand, such as ODN2006 (Cat. #: tlrl-2006-1, Invivogen, San Diego, California, USA), for incubation of 20 hrs. The cell culture supernatant SEAP reporter activity was determined using QUANTI-Blue™ kit (Cat. #: rep-qb1, Invivogen, San Diego, California, USA) at a wavelength of 640 nm, a detection medium that turns purple or blue in the presence of alkaline phosphatase.
HEK293-Blue-hTLR9 cells were incubated at a density of 250,000˜450,000 cells/mL in a volume of 170 μL in a 96-well plate in Dulbecco's Modified Eagle's medium (DMEM) containing 4.5 g/L glucose, 50 U/mL penicillin, […], 2 mM L-glutamine, 10% (v/v) heat-inactivated fetal bovine serum with addition of 20 μL test compound in a serial dilution in the presence of final DMSO at 1% and 10 μL of 20 uM ODN2006 in above DMEM, perform incubation under 37° C. in a CO2 incubator for 20 hrs. Then 20 μL of the supernatant from each well was incubated with 180 μL Quanti-blue substrate solution at 37° C. for 2 h and the absorbance was read at 620-655 nm using a spectrophotometer. The signaling pathway that TLR9 activation leads to downstream NF-κB activation has been widely accepted, and therefore similar reporter assay was modified for evaluating TLR9 antagonist.

| SMILES | IC50 |
| --- | --- |
| C[C@@H]1CN(c2ccc(C#N)n3ncc(F)c23)C[C@H](CN2CC3(C2)OCc2cc(N4CC(C)(N)C4)cnc23)O1 [Example 33, 4-[(2S,6R)-2-[[3-(3-amino-3-methyl-azetidin-1-yl)spiro[5H-furo[3,4-b]pyridine-7,3′-azetidine]-1′-yl]methyl]-6-methyl-morpholin-4-yl]-3-fluoro-pyrazolo[1,5-a]pyridine-7-carbonitrile] | 0.227 µM |
| C[C@@H]1CN(c2ccc(C#N)n3ncc(F)c23)C[C@H](CN2CC3(C2)OCc2cc(N4CC(N)C4)ccc23)O1 [Example 9, 4-[(2S,6R)-2-[[6-(3-aminoazetidin-1-yl)spiro[1H-isobenzofuran-3,3′-azetidine]-1′-yl]methyl]-6-methyl-morpholin-4-yl]-3-fluoro-pyrazolo[1,5-a]pyridine-7-carbonitrile] | 0.084 µM |
| C[C@@H]1CN(c2ccc(C#N)n3ncc(F)c23)C[C@H](CN2CC3(C2)OCc2cc(N4CC(C)(N)C4)ccc23)O1 [Example 1, 4-[(2S,6R)-2-[[6-(3-amino-3-methyl-azetidin-1-yl)spiro[1H-isobenzofuran-3,3′-azetidine]-1′-yl]methyl]-6-methyl-morpholin-4-yl]-3-fluoro-pyrazolo[1,5-a]pyridine-7-carbonitrile] | 0.131 µM |
| [2H]c1ccc2c(N3C[C@H](CN4CC5(C4)OCc4cc(N6C[C@H]7NCCO[C@@H]7C6)ncc45)O[C@H](C)C3)ccc(C#N)c2n1 [Example 28, 5-[(2S,6R)-2-[[6-[(4aR,7aR)-3,4,4a,5,7,7a-hexahydro-2H-pyrrolo[3,4-b][1,4]oxazin-6-yl]spiro[1H-furo[3,4-c]pyridine-3,3′-azetidine]-1′-yl]methyl]-6-methyl-morpholin-4-yl]-2-deuterio-quinoline-8-carbonitrile] | 0.16 µM |
| C[C@@H]1CN(c2ccc(C#N)n3ncc(F)c23)C[C@H](CN2CC3(C2)OCc2cc(N4CCNCC4)ccc23)O1 [Example 6, 3-fluoro-4-[(2R,6S)-2-methyl-6-[(6-piperazin-1-ylspiro[1H-isobenzofuran-3,3′-azetidine]-1′-yl)methyl]morpholin-4-yl]pyrazolo[1,5-a]pyridine-7-carbonitrile] | 0.09 µM |
| C[C@@H]1CN(c2ccc(C#N)n3nccc23)C[C@H](CN2CC3(C2)OCc2cc(N4CC(C)(N)C4)cnc23)O1 [Example 26, 4-[(2S,6R)-2-[[3-(3-amino-3-methyl-azetidin-1-yl)spiro[5H-furo[3,4-b]pyridine-7,3′-azetidine]-1′-yl]methyl]-6-methyl-morpholin-4-yl]pyrazolo[1,5-a]pyridine-7-carbonitrile] | 0.08 µM |
| C[C@@H]1CN(c2ccc(C#N)n3ncc(F)c23)C[C@H](CN2CC3(C2)OCc2cc(N4CC5(CNC5)C4)ccc23)O1 [Example 12, 4-[(2S,6R)-2-[[6-(2,6-diazaspiro[3.3]heptan-2-yl)spiro[1H-isobenzofuran-3,3′-azetidine]-1′-yl]methyl]-6-methyl-morpholin-4-yl]-3-fluoro-pyrazolo[1,5-a]pyridine-7-carbonitrile] | 0.103 µM |
| [2H]c1ccc2c(N3C[C@H](CN4CC5(C4)OCc4cc(N6C[C@@H](N)[C@H](OC)C6)cnc45)O[C@H](C)C3)ccc(C#N)c2n1 [Example 31, 5-[(2S,6R)-2-[[3-[(3R,4R)-3-amino-4-methoxy-pyrrolidin-1-yl]spiro[5H-furo[3,4-b]pyridine-7,3′-azetidine]-1′-yl]methyl]-6-methyl-morpholin-4-yl]-2-deuterio-quinoline-8-carbonitrile] | 0.079 µM |
| C[C@@H]1CN(c2ccc(C#N)n3ncc(F)c23)C[C@H](CN2CC3(C2)OCc2cc(N4CC[C@](C)(N)C4)ccc23)O1 [Example 5, 4-[(2S,6R)-2-[[6-[(3S)-3-amino-3-methyl-pyrrolidin-1-yl]spiro[1H-isobenzofuran-3,3′-azetidine]-1′-yl]methyl]-6-methyl-morpholin-4-yl]-3-fluoro-pyrazolo[1,5-a]pyridine-7-carbonitrile] | 0.094 µM |
| [2H]c1ccc2c(N3C[C@H](CN4CC5(C4)OCc4cc(N6CC(N)C6)ncc45)O[C@H](C)C3)ccc(C#N)c2n1 [Example 32, 5-[(2S,6R)-2-[[6-(3-aminoazetidin-1-yl)spiro[1H-furo[3,4-c]pyridine-3,3′-azetidine]-1′-yl]methyl]-6-methyl-morpholin-4-yl]-2-deuterio-quinoline-8-carbonitrile] | 0.244 µM |
| C[C@@H]1CN(c2ccc(C#N)n3ncc(F)c23)C[C@H](CN2CC3(C2)OCc2cc(N4CC5(CNCCO5)C4)ccc23)O1 [Example 4, 3-fluoro-4-[(2R,6S)-2-methyl-6-[[6-(5-oxa-2,8-diazaspiro[3.5]nonan-2-yl)spiro[1H-isobenzofuran-3,3′-azetidine]-1′-yl]methyl]morpholin-4-yl]pyrazolo[1,5-a]pyridine-7-carbonitrile] | 0.096 µM |

Now those with a lower IC50, led by results:

| IC50 | SMILES |
| --- | --- |
| 0.07 µM | C[C@@H]1CN(c2ccc(C#N)n3nccc23)C[C@H](CN2CC3(C2)OCc2cc(N4CC(C)(N)C4)ncc23)O1 [Example 25, 4-[(2S,6R)-2-[[6-(3-amino-3-methyl-azetidin-1-yl)spiro[1H-furo[3,4-c]pyridine-3,3′-azetidine]-1′-yl]methyl]-6-methyl-morpholin-4-yl]pyrazolo[1,5-a]pyridine-7-carbonitrile] |
| 0.068 µM | C[C@@H]1CN(c2cc(=O)n(C)c3ncccc23)C[C@H](CN2CC3(C2)OCc2cc(N4CC(N)C4)ccc23)O1 [Example 13, 4-[(2S,6R)-2-[[6-(3-aminoazetidin-1-yl)spiro[1H-isobenzofuran-3,3′-azetidine]-1′-yl]methyl]-6-methyl-morpholin-4-yl]-1-methyl-1,8-naphthyridin-2-one] |
| 0.057 µM | C[C@@H]1CN(c2ccc(C#N)n3ncc(F)c23)C[C@H](CN2CC3(C2)OCc2cc(N4CC5(CN(C)C5)C4)cnc23)O1 [Example 22, 3-fluoro-4-[(2R,6S)-2-methyl-6-[[3-(6-methyl-2,6-diazaspiro[3.3]heptan-2-yl)spiro[5H-furo[3,4-b]pyridine-7,3′-azetidine]-1′-yl]methyl]morpholin-4-yl]pyrazolo[1,5-a]pyridine-7-carbonitrile] |
| 0.047 µM | C[C@@H]1CN(c2ccc(C#N)n3ncc(F)c23)C[C@H](CN2CC3(C2)OCc2cc(N[C@H]4CNC[C@H]4F)ccc23)O1 [Example 3, 3-fluoro-4-[(2S,6R)-2-[[6-[[(3S,4R)-4-fluoropyrrolidin-3-yl]amino]spiro[1H-isobenzofuran-3,3′-azetidine]-1′-yl]methyl]-6-methyl-morpholin-4-yl]pyrazolo[1,5-a]pyridine-7-carbonitrile] |
| 0.036 µM | C[C@@H]1CN(c2ccc(C#N)n3nccc23)C[C@H](CN2CC3(C2)OCc2cc(N4CC(N)C4)ccc23)O1 [Example 19, 4-[(2S,6R)-2-[[6-(3-aminoazetidin-1-yl)spiro[1H-isobenzofuran-3,3′-azetidine]-1′-yl]methyl]-6-methyl-morpholin-4-yl]pyrazolo[1,5-a]pyridine-7-carbonitrile] |
| 0.032 µM | [2H]c1ccc2c(N3C[C@H](CN4CC5(C4)OCc4cc(N6CCNCC6)ccc45)O[C@H](C)C3)ccc(C#N)c2n1 [Example 18, 2-deuterio-5-[(2R,6S)-2-methyl-6-[(6-piperazin-1-ylspiro[1H-isobenzofuran-3,3′-azetidine]-1′-yl)methyl]morpholin-4-yl]quinoline-8-carbonitrile] |
